Earlier results as cited in patent US20060106070A1, “Novel pyridine-based metal chelators as antiviral agents” (Bioflexis, LLC, priority 2004, published 2006).

Columns and labels:
HIV-1 integrase [1] = molecular target: T1, HIV-1 integrase (Human immunodeficiency virus type 1 group M subtype B, UniProt P12497); settings: result in words
T1 construct: HIV-1 recombinant IN (HIV-1NL 4-3 Integrase); purchased NIH AIDS Reagent program 2959

HIV-1 integrase [2] = molecular target: T1, HIV-1 integrase; settings: result in words; remark: listed apart in the source

O=C(O)C(=O)CC(=O)c1cc(OCc2ccccc2)cc(OCc2ccccc2)c1 [L-708, 906]
inhibition of strand transfer reaction (HIV-1 integrase [1]): inhibit strand transfer reaction | inhibition of 3′ processing (HIV-1 integrase [2]): do not inhibit 3′ processing

O=C(O)C(=O)CC(=O)c1cccn1Cc1ccc(F)cc1 [L-731,988]
inhibition of strand transfer reaction (HIV-1 integrase [1]): inhibit strand transfer reaction | inhibition of 3′ processing (HIV-1 integrase [2]): do not inhibit 3′ processing
